Assay results published in the supplement of paper PMC10307832.

Experiments:
Assay in all cases: relative viability (nuclei count vs DMSO), 5 days (fraction); higher = more cells survive
[1] = tested on: BEN
Procedure, shortened: (§1)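 Lung cancer cell lines were seeded in 1536-well plates and dosed by pin tool the next day, with either a single drug or a fixed anchor-drug dose combined with five library-drug doses (not always all listed) spaced in √10 steps. Five days later, one step fixed the cells and stained their nuclei (final 0.05% Triton X-100, 1% formaldehyde, 1 ug/ml Hoechst), and nuclei were counted on 4× images. Relative viability is the nuclei count in treated wells divided by the count in vehicle wells, and each value is the median of duplicate plates.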

[2] = tested on: ChaGo-K-1
Procedure, shortened: as §1

[3] = tested on: HCC-78
Procedure, shortened: as §1

[4] = tested on: LC-2-ad
Procedure, shortened: as §1

[5] = tested on: LCLC-97TM1
Procedure, shortened: as §1

[6] = tested on: LK-2
Procedure, shortened: as §1

[7] = tested on: LU99A
Procedure, shortened: as §1

[8] = tested on: LXF-289
Procedure, shortened: as §1

[9] = tested on: NCI-H1355
Procedure, shortened: as §1

[10] = tested on: NCI-H1651
Procedure, shortened: as §1

[11] = tested on: NCI-H1666
Procedure, shortened: as §1

[12] = tested on: NCI-H1944
Procedure, shortened: as §1

[13] = tested on: NCI-H1975
Procedure, shortened: as §1

[14] = tested on: NCI-H2087
Procedure, shortened: as §1

[15] = tested on: NCI-H2342
Procedure, shortened: as §1

[16] = tested on: NCI-H358
Procedure, shortened: as §1

[17] = tested on: NCI-H596
Procedure, shortened: as §1

[18] = tested on: NCI-H650
Procedure, shortened: as §1

[19] = tested on: NCI-H661
Procedure, shortened: as §1

[20] = tested on: NCI-H838
Procedure, shortened: as §1

[21] = tested on: PC-3 [JPC-3]
Procedure, shortened: as §1

[22] = tested on: SK-MES-1
Procedure, shortened: as §1

## O=c1cc(N2CCOCC2)oc2c(-c3cccc4c3sc3ccccc34)cccc12 + O=C(CCCCCCC(=O)Nc1ccccc1)NO [Vorinostat] (partner 1 µM)
[1]; first compound 0.01 µM
  relative viability: 0.56
[1]; first compound 0.03162 µM
  relative viability: 0.627
[1]; first compound 0.1 µM
  relative viability: 0.49
[1]; first compound 0.3162 µM
  relative viability: 0.583
[1]; first compound 1 µM
  relative viability: 0.655
[2]; first compound 0.01 µM
  relative viability: 0.69
[2]; first compound 0.03162 µM
  relative viability: 0.785
[2]; first compound 0.1 µM
  relative viability: 0.578
[2]; first compound 0.3162 µM
  relative viability: 0.813
[2]; first compound 1 µM
  relative viability: 0.789
[3]; first compound 0.01 µM
  relative viability: 0.428
[3]; first compound 0.03162 µM
  relative viability: 0.406
[3]; first compound 0.1 µM
  relative viability: 0.44
[3]; first compound 0.3162 µM
  relative viability: 0.464
[3]; first compound 1 µM
  relative viability: 0.48
[4]; first compound 0.01 µM
  relative viability: 0.703
[4]; first compound 0.03162 µM
  relative viability: 0.72
[4]; first compound 0.1 µM
  relative viability: 0.798
[4]; first compound 0.3162 µM
  relative viability: 0.647
[4]; first compound 1 µM
  relative viability: 0.741
[5]; first compound 0.01 µM
  relative viability: 0.699
[5]; first compound 0.03162 µM
  relative viability: 0.725
[5]; first compound 0.1 µM
  relative viability: 0.3
[5]; first compound 0.3162 µM
  relative viability: 0.66
[5]; first compound 1 µM
  relative viability: 0.784
[6]; first compound 0.01 µM
  relative viability: 0.343
[6]; first compound 0.03162 µM
  relative viability: 0.267
[6]; first compound 0.1 µM
  relative viability: 0.345
[6]; first compound 0.3162 µM
  relative viability: 0.233
[6]; first compound 1 µM
  relative viability: 0.27
[7]; first compound 0.01 µM
  relative viability: 0.489
[7]; first compound 0.03162 µM
  relative viability: 0.491
[7]; first compound 0.1 µM
  relative viability: 0.446
[7]; first compound 0.3162 µM
  relative viability: 0.512
[7]; first compound 1 µM
  relative viability: 0.491
[8]; first compound 0.01 µM
  relative viability: 0.797
[8]; first compound 0.03162 µM
  relative viability: 0.789
[8]; first compound 0.1 µM
  relative viability: 0.693
[8]; first compound 0.3162 µM
  relative viability: 0.741
[8]; first compound 1 µM
  relative viability: 0.827
[9]; first compound 0.01 µM
  relative viability: 0.681
[9]; first compound 0.03162 µM
  relative viability: 0.613
[9]; first compound 0.1 µM
  relative viability: 0.598
[9]; first compound 0.3162 µM
  relative viability: 0.663
[9]; first compound 1 µM
  relative viability: 0.598
[10]; first compound 0.01 µM
  relative viability: 0.55
[10]; first compound 0.03162 µM
  relative viability: 0.556
[10]; first compound 0.1 µM
  relative viability: 0.528
[10]; first compound 0.3162 µM
  relative viability: 0.567
[10]; first compound 1 µM
  relative viability: 0.489
[11]; first compound 0.01 µM
  relative viability: 0.985
[11]; first compound 0.03162 µM
  relative viability: 1.04
[11]; first compound 0.1 µM
  relative viability: 1.19
[11]; first compound 0.3162 µM
  relative viability: 1.03
[11]; first compound 1 µM
  relative viability: 1.04
[12]; first compound 0.01 µM
  relative viability: 0.529
[12]; first compound 0.03162 µM
  relative viability: 0.612
[12]; first compound 0.1 µM
  relative viability: 0.503
[12]; first compound 0.3162 µM
  relative viability: 0.48
[12]; first compound 1 µM
  relative viability: 0.616
[13]; first compound 0.01 µM
  relative viability: 0.672
[13]; first compound 0.03162 µM
  relative viability: 0.69
[13]; first compound 0.1 µM
  relative viability: 0.733
[13]; first compound 0.3162 µM
  relative viability: 0.641
[13]; first compound 1 µM
  relative viability: 0.368
[14]; first compound 0.01 µM
  relative viability: 0.474
[14]; first compound 0.03162 µM
  relative viability: 0.637
[14]; first compound 0.1 µM
  relative viability: 0.8
[14]; first compound 0.3162 µM
  relative viability: 0.64
[14]; first compound 1 µM
  relative viability: 0.745
[15]; first compound 0.01 µM
  relative viability: 0.708
[15]; first compound 0.03162 µM
  relative viability: 0.828
[15]; first compound 0.1 µM
  relative viability: 0.748
[15]; first compound 0.3162 µM
  relative viability: 0.729
[15]; first compound 1 µM
  relative viability: 0.637
[16]; first compound 0.01 µM
  relative viability: 0.676
[16]; first compound 0.03162 µM
  relative viability: 0.619
[16]; first compound 0.1 µM
  relative viability: 0.75
[16]; first compound 0.3162 µM
  relative viability: 0.702
[16]; first compound 1 µM
  relative viability: 0.689
[17]; first compound 0.01 µM
  relative viability: 0.564
[17]; first compound 0.03162 µM
  relative viability: 0.586
[17]; first compound 0.1 µM
  relative viability: 0.581
[17]; first compound 0.3162 µM
  relative viability: 0.626
[17]; first compound 1 µM
  relative viability: 0.573
[18]; first compound 0.01 µM
  relative viability: 0.537
[18]; first compound 0.03162 µM
  relative viability: 0.412
[18]; first compound 0.3162 µM
  relative viability: 0.496
[18]; first compound 1 µM
  relative viability: 0.402
[19]; first compound 0.01 µM
  relative viability: 0.761
[19]; first compound 0.03162 µM
  relative viability: 0.793
[19]; first compound 0.1 µM
  relative viability: 0.836
[19]; first compound 0.3162 µM
  relative viability: 0.79
[19]; first compound 1 µM
  relative viability: 0.765
[20]; first compound 0.01 µM
  relative viability: 0.752
[20]; first compound 0.03162 µM
  relative viability: 0.716
[20]; first compound 0.1 µM
  relative viability: 0.686
[20]; first compound 0.3162 µM
  relative viability: 0.657
[20]; first compound 1 µM
  relative viability: 0.698
[21]; first compound 0.01 µM
  relative viability: 0.76
[21]; first compound 0.03162 µM
  relative viability: 0.774
[21]; first compound 0.1 µM
  relative viability: 0.859
[21]; first compound 0.3162 µM
  relative viability: 0.896
[21]; first compound 1 µM
  relative viability: 0.401
[22]; first compound 0.01 µM
  relative viability: 1.04
[22]; first compound 0.03162 µM
  relative viability: 1.06
[22]; first compound 0.1 µM
  relative viability: 1.04
[22]; first compound 0.3162 µM
  relative viability: 1.04
[22]; first compound 1 µM
  relative viability: 1.09
